According to patent US8273775B2, “Non-steroidal brassinosteroid mimetic” (priority 2006, dated 2012):
Peptide text beside a SMILES is read from it. * marks the point of attachment. Cbz = O=C(OCc1ccccc1)*

Tests used:
[1] = tested on: BR-biosynthetic, BR signaling and BR-induced genes; experiment: Real time PCR of BR pathway genes; assay type: in vivo, Arabidopsis thaliana; settings: 30 μM, 2 hours
Description: FIG. 7: Q-PCR analysis of genes involved in BR biosynthesis. WT Arabidopsis plants were treated with abrasin (indicated as I5) for 2 hours at a concentration of 30 μM and/or with CHX at a concentration of 30 μM and RNA was extracted from whole plants.
(§1) FIG. 8: A: Western Blot analysis of the BES1 protein in 35S:BES1:GFP plants treated with BL and abrasin (indicated as I5 throughout the figure) (A); MG132 with BL or abrasin (B); a time course with abrasin (C) and a concentration gradient with abrasin (D). B: Abrasin and BL induce similar transcriptional regulation of the BR pathway.
RNA was extracted with the RNeasy kit. Poly(dT) cDNA was prepared from […] of total RNA with Superscript III reverse transcriptase (Invitrogen) and quantified on an LightCycler 480 apparatus (Roche) with the SYBR Green I Master kit (Roche) according to the manufacturer's instructions. Target quantifications were performed with specific primer pairs designed with the Beacon Designer 4.0 (Premier Biosoft International). All PCRs were performed in triplicate.
The primers used to quantify gene expression levels were for BAS 1: 5′-[…]-3′ and 5′-[…]-3′; BR6Ox1: 5′-TGGCCAATCTTTGGCGAA-3′ and 5′-[…]-3′; BR6Ox2: 5′-[…]-3′ and 5′-[…]-3′; BRI1: 5′-[…]-3′ and 5′-[…]-3′; CPD: 5′-[…]-3′ and 5′-[…]-3′; DWF4: 5′-[…]-3′ and 5′-[…]-3′ ROT3: 5′-ATTGGCGCGTTCCTCAGAT-3′ and 5′-[…]-3′; BES1: 5′-[…]-3′ and 5′-[…]-3′; BIN2: 5′-[…]-3′ and 5′-[…]-3′; BSU 1: 5′-[…]-3′ and 5′-[…]-3′; BZR1: 5′-[…]-3′ and 5′-[…]-3′; CDKA1; 1: 5′-[…]-3′ and 5′-[…]-3′; EEF1α: 5′-[…]-3′ and 5′-[…]-3′; BKI1: 5′-GCTCCGGCGTCGATGA-3′ and 5′-[…]-3′.

[2] = tested on: BES1 protein in 35S:BES1:GFP plants; experiment: Western blot analysis of BES1 phosphorylation state; assay type: in vivo, Arabidopsis thaliana
Description: as §1
For protein extraction, six-day-old seedlings were grown under standard conditions as described earlier on solid medium. Plants were next soaked in liquid MS-medium supplemented with the indicated compounds (concentrations and time periods as indicated in figures). Subsequently, plants were frozen in liquid nitrogen, ground and homogenized in ice-cold homogenization buffer (25 mM Tris-HCl (pH 8), 5 mM EDTA, 1 mM β-Mercapto-ethanol, 15 mM MgCl—2, 85 mM NaCl, 0.1% Tween 20, 1 protease inhibitor tablet/50 ml, Complete (Roche diagnostics, Belgium)). The homogenate was centrifuged twice (5 min, 14.000 rpm, 4° C.) in an Eppendorf Centrifuge 5417. Loading buffer was added, the samples were heated for 10 min at 95° C. and centrifuged. The samples were separated on a 12% acrylamide gel or a 4-20% gradient pre-cast gel (Bio-Rad) and blotted on nitrocellulose membranes (Hybond-C super, GE-Biosciences, UK) in 190 mM glycine and 25 mM Tris-Hcl using a mini-blotting system (Bio-Rad, USA) for 1 h. Membranes were blocked overnight at 4° C. in phosphate buffer with 0.1% Tween 20 and 5% skim milk (BD Difco, USA). For immunodetection, anti-BES1 antibodies at 1:2000 dilution and anti-GFP antibodies at 1:1000 dilution were used as primary antibody. As secondary antibody, anti-rat and anti-rabbit were used at 1:10.000 dilution. The proteins were detected by chemiluminescence (Perkin-Elmer, USA).

[3] = tested on: Arabidopsis thaliana seedlings; experiment: Lateral root formation / root elongation of seedlings on agar plates; assay type: in vivo; settings: structural variants of abrasin
Description: FIG. 3: (A) Phenotypic characterization. WT plants were grown under standard conditions on agar plates. […] Left panel: control plant. Middle panel: abrasin treated plant. Right panel: BL treated plant. (B) Dose response measurements of abrasin using lateral root formation as an indicator of brassinosteroid like activity. Error bars represent standard error of the mean. […] Osram) at 22° C. Three days after germination compounds were added to the 96-well plates at a final concentration of 50 μM. Plants were screened six days after germination for brassinosteroid-related phenotypes. For further phenotypical analysis, all plants were grown on vertically oriented square plates (Greiner Labortechnik, Austria) with solid medium derived from standard Murashige and Skoog medium under the same conditions. For the hypocotyl-elongation assay, plants were grown in the dark at 22° C. under the same conditions.

## C[C@@H]1C[C@@H]([C@H](O)CC2CC(=O)NC(=O)C2)C(=O)[C@@H](C)C1 [CHX, cycloheximide, reference compound]
[1]
  expression of genes downstream of the BRI1 receptor: able to induce some of these genes

## CC(C)C[C@@H](C=O)NC(=O)[C@H](CC(C)C)NC(=O)[C@H](CC(C)C)NC(=O)OCc1ccccc1 [MG132, Z-Leu-Leu-Leu-CHO, reference compound] (Cbz-Leu-Leu-Leu-aldehyde)
[2]; MG132 treatment
  total amount of BES1 protein: an increase in the total amount of BES1
[2]; addition of BL or MG132
  BES1 phosphorylation state: no shift in the ratio between the phosphorylated and the dephosphorylated form is observed

## O=C(O)CCC(=O)Nc1ccc(F)cn1 [fluoro derivative, 4-[(5-fluoro-2-pyridinyl)amino]-4-oxobutanoic acid]
[3]
  effect on lateral root formation as indication of brassinosteroid like activity: highest activity
